Experiments:
[1] = tested on: recombinant human anti-SARS-CoV antibody 03-018; assay type: binding; design: Binding of antibody 03-018 to linear peptides of the N protein of SARS-CoV Urbani / Binding of antibody 03-018 to looped/cyclic peptides of the N protein of SARS-CoV Urbani: unit not given here
[2] = tested on: rabbit serum obtained by immunizing a rabbit with the SARS-CoV strain Frankfurt 1; assay type: binding; design: Binding of a rabbit serum to linear peptides / Binding of a rabbit serum to looped peptides / Rabbit serum linear peptides / Rabbit serum looped peptides / Binding of a rabbit serum to linear peptides of protein N of SARS-CoV Urbani (Rabbit serum linear peptides) / Binding of a rabbit serum to looped/cyclic peptides of protein N of SARS-CoV Urbani (Rabbit serum looped peptides): unit not given here
[3] = tested on: antibodies in sera from SARS patients (sera 1a, 1b, 2, 6, 37, 62, London, SARS-yellow, SARS-green); assay type: binding, human; design: Binding of serum 6 to linear peptides of protein X1 of SARS-CoV Urbani / Binding of serum 37 to linear peptides of protein X1 of SARS-CoV Urbani / Binding of serum 6 to looped/cyclic peptide (PEPSCAN-ELISA) / Binding of serum 37 to looped/cyclic peptide (PEPSCAN-ELISA) / Binding of serum 37 to looped/cyclic peptides of protein X1 of SARS-CoV Urbani / Binding of serum 6 to linear peptides of protein X2 / Binding of serum 37 to linear peptides of protein X2 / Binding of serum 37 to looped/cyclic peptides of protein X2 of SARS-CoV Urbani / Binding of serum 6 to linear peptides of protein M of SARS-CoV Urbani / Binding of serum 37 to linear peptides of protein M of SARS-CoV Urbani / Binding of serum 6 to looped/cyclic peptides of protein M of SARS-CoV Urbani / Binding of serum 37 to looped/cyclic peptides of protein M of SARS-CoV Urbani / Binding of serum 6 to linear peptides of protein X3 of SARS-CoV Urbani / Binding of serum 37 to linear peptides of protein X3 of SARS-CoV Urbani / Binding of serum 37 to looped/cyclic peptides of protein X3 of SARS-CoV Urbani / Binding of serum 6 to linear peptides of protein X4 of SARS-CoV Urbani / Binding of serum 37 to linear peptides of protein X4 of SARS-CoV Urbani / Binding of serum 37 to looped/cyclic peptides of protein X4 of SARS-CoV Urbani / Binding of serum 6 to linear peptides of protein X5 of SARS-CoV Urbani / Binding of serum 37 to linear peptides of protein X5 of SARS-CoV Urbani / Binding of serum 37 to looped/cyclic peptides of protein X5 of SARS-CoV Urbani / Binding of serum 6 to linear peptides of protein N of SARS-CoV Urbani / Binding of serum 37 to linear peptides of protein N of SARS-CoV Urbani / Binding of serum 6 to linear peptide (PEPSCAN-ELISA) / Binding of serum 1a to looped/cyclic peptides of protein N of SARS-CoV Urbani / Binding of serum 1b to looped/cyclic peptides of protein N of SARS-CoV Urbani / Binding of serum 2 to looped/cyclic peptides of protein N of SARS-CoV Urbani / Binding of serum 6 to looped/cyclic peptides of protein N of SARS-CoV Urbani / Binding of serum 37 to looped/cyclic peptides of protein N of SARS-CoV Urbani / Binding of serum 62 to looped/cyclic peptides of protein N of SARS-CoV Urbani / Binding of serum London to looped/cyclic peptides of protein N of SARS-CoV Urbani / Binding of serum SARS-green to looped/cyclic peptides of protein N of SARS-CoV Urbani: unit not given here
[4] = tested on: control sera (pooled serum of ten healthy LUMC hospital workers; commercial negative donor pooled serum from the Dutch bloodbank); assay type: binding, human; design: Binding of Control serum LUMC to linear peptides / Binding of Control serum Blood-bank to linear peptides / Binding of Control serum LUMC to looped peptides / Binding of Control Serum Blood-Bank to Looped peptides / Binding of Control serum LUMC to linear peptides of the protein M of SARS-CoV Urbani / Binding of Control serum Blood-bank to linear peptides of the protein M of SARS-CoV Urbani / Binding of Control serum LUMC to looped peptides of the protein M of SARS-CoV Urbani / Binding of Control Serum Blood-Bank to Looped peptides of the protein M of SARS-CoV Urbani: unit not given here

| Sequence | Binding of antibody 03-018 to linear peptides of the N protein of SARS-CoV Urbani [1] | Binding of antibody 03-018 to looped/cyclic peptides of the N protein of SARS-CoV Urbani [1] | Binding of a rabbit serum to linear peptides of protein N of SARS-CoV Urbani (Rabbit serum linear peptides) [2] | Binding of a rabbit serum to looped/cyclic peptides of protein N of SARS-CoV Urbani (Rabbit serum looped peptides) [2] | Binding of serum 1a to linear peptides of protein N of SARS-CoV Urbani [3] | Binding of serum 1a to looped/cyclic peptides of protein N of SARS-CoV Urbani [3] | Binding of serum 1b to linear peptides of protein N of SARS-CoV Urbani [3] | Binding of serum 1b to looped/cyclic peptides of protein N of SARS-CoV Urbani [3] | Binding of serum 2 to linear peptides of protein N of SARS-CoV Urbani [3] | Binding of serum 2 to looped/cyclic peptides of protein N of SARS-CoV Urbani [3] | Binding of serum 6 to linear peptides of protein N of SARS-CoV Urbani [3] | Binding of serum 6 to looped/cyclic peptides of protein N of SARS-CoV Urbani [3] | Binding of serum 37 to linear peptides of protein N of SARS-CoV Urbani [3] | Binding of serum 37 to looped/cyclic peptides of protein N of SARS-CoV Urbani [3] | Binding of serum 62 to linear peptides of protein N of SARS-CoV Urbani [3] | Binding of serum 62 to looped/cyclic peptides of protein N of SARS-CoV Urbani [3] | Binding of serum London to linear peptides of protein N of SARS-CoV Urbani [3] | Binding of serum London to looped/cyclic peptides of protein N of SARS-CoV Urbani [3] | Binding of serum SARS-green to linear peptides of protein N of SARS-CoV Urbani [3] | Binding of serum SARS-green to looped/cyclic peptides of protein N of SARS-CoV Urbani [3] | further results |
| --- | --- | --- | --- | --- | --- | --- | --- | --- | --- | --- | --- | --- | --- | --- | --- | --- | --- | --- | --- | --- | --- |
| PSASAFFGMSRIGME | 0.1 | 0.2 | 0.1 | 0.3 | 0.2 | 0.4 | 0.1 | 0.3 | 0.1 | 0.3 | 0.1 | 0.2 | 0.6 | 0.6 | 0.5 | 0.4 | 0.5 | 0.3 | 0.1 | 0.3 | Binding of serum SARS-yellow to linear peptides of protein N of SARS-CoV Urbani [3]: 0.6; Binding of serum SARS-yellow to looped/cyclic peptides of protein N of SARS-CoV Urbani [3]: 0.4; Control Serum Blood-Bank Looped peptides [4]: 0.4; Control serum Blood-bank linear peptides [4]: 0.6; Control serum LUMC linear peptides [4]: 0.6; Control serum LUMC looped peptides [4]: 0.5 |
| PTDSTDNNQNGGRNG | 0.1 | 0.2 | 0.1 | 0.1 | 0.3 | 0.3 | 0.2 | 0.2 | 0.3 | 0.3 | 0.2 | 0.2 | 1.2 | 0.5 | 0.8 | 0.3 | 0.7 | 0.4 | 0.6 | 0.4 | Binding of serum SARS-yellow to linear peptides of protein N of SARS-CoV Urbani [3]: 0.7; Binding of serum SARS-yellow to looped/cyclic peptides of protein N of SARS-CoV Urbani [3]: 0.5; Binding of Control Serum Blood-Bank to Looped peptides [4]: 0.5; Binding of Control serum Blood-bank to linear peptides [4]: 1.0; Binding of Control serum LUMC to linear peptides [4]: 0.8; Binding of Control serum LUMC to looped peptides [4]: 0.4 |
| PTEPKKDKKKKTDEA | 0.1 | 0.2 | 0.1 | 0.2 | 0.2 | 0.2 | 0.1 | 0.1 | 2.0 | 0.3 | 0.2 | 0.1 | 0.6 | 0.3 | 0.7 | 0.3 | 0.5 | 0.3 | 0.2 | 0.0 | Binding of serum SARS-yellow to linear peptides of protein N of SARS-CoV Urbani [3]: 0.5; Binding of serum SARS-yellow to looped/cyclic peptides of protein N of SARS-CoV Urbani [3]: 0.2; Control Serum Blood-Bank Looped peptides [4]: 0.4; Control serum Blood-bank linear peptides [4]: 0.6; Control serum LUMC linear peptides [4]: 0.6; Control serum LUMC looped peptides [4]: 0.3 |
| PTVTLLPAADMDDFS | 0.1 | 0.2 | 0.1 | 0.0 | 0.3 | 0.2 | 0.2 | 0.2 | 0.2 | 0.3 | 0.1 | 0.1 | 1.4 | 0.4 | 0.9 | 0.2 | 0.6 | 0.2 | 1.9 | 0.7 | Binding of serum SARS-yellow to linear peptides of protein N of SARS-CoV Urbani [3]: 0.7; Binding of serum SARS-yellow to looped/cyclic peptides of protein N of SARS-CoV Urbani [3]: 0.1; Control Serum Blood-Bank Looped peptides [4]: 0.3; Control serum Blood-bank linear peptides [4]: 0.8; Control serum LUMC linear peptides [4]: 0.7; Control serum LUMC looped peptides [4]: 0.3 |

— patent US20070128217A1 (priority 2003, published 2007)
